One series concerns HepG2 cells. The series is described as follows: Cell viability, MTT assay, HepG2. It is filed as cell-based, human. The note with it: HepG2, 48 h, up to 50 μM. The protocol:
(§1) Human liver cells (HepG2) and murine myoblasts (C2C12) were purchased by Sigma-Aldrich, which obtained them from the European Collection of Authenticated Cell Cultures (ECACC). HepG2 and C2C12 cells were grown in Dulbecco’s Modified Eagle’s medium (DMEM) supplemented with 10% foetal bovine serum (FBS), 2 mM glutamine, 100 IU/mL penicillin, 100 μg/mL streptomycin (Sigma-Aldrich, St. Louis, MO, USA), in a humidified atmosphere and with 5% CO2 at 37 °C. Differentiation of C2C12 was induced incubating murine myoblasts in DMEM supplemented with 2% horse serum. C2C12 cells were plated and grown until they reach 70% confluence. Then, cells were incubated in the presence of 2% horse serum for 96 h. Every 48 h, the medium was replaced with fresh medium. After 96 h, the degree of differentiation was evaluated analysing cells with a contrast phase microscope.
(§2) HepG2 and C2C12 cells were incubated in the presence of increasing concentrations of compounds 4e and 4f for 48 h at 37 °C. After this time, cells were washed with PBS and then incubated for 1 h with 0.5 mg/mL of MTT dissolved in complete medium. Then cells were washed and lysed with 300 μL of DMSO. The absorbance of solutions were evaluated using a microplate readers at 595 nm. All data were normalized respect to control experiment.

Series [1] has as its system insulin receptor (IRβ) phosphorylation in C2C12 cells. The series is described as follows: Insulin receptor phosphorylation in C2C12 cells (western blot). The format is cell-based, murine. How it is done:
(§3) The insulin mimetic/sensitizing activity of compound 4f was evaluated on both HepG2 and C2C12 cells. Starved HepG2 and C2C12 cells were incubated in the presence of compound 4f (25 μM) for 90 min and after stimulated or not with insulin (10 nM). Then, cells extracts were analysed to evaluate phosphorylation levels of the insulin receptor.
(§4) HepG2 and differentiated C2C12 cells were starved for 24 h and then incubated in the presence of compound 4f (25 μM, final concentration) for 90 min. After this time, cells were washed with PBS and then stimulated or not with 10 nM insulin for 30 min. Then, cells were lysed and cellular proteins separated on a 12% SDS-PAGE. After electrophoresis, cellular proteins were transferred on a PVDF membrane by western blot technique and then probed against antibodies able to specifically recognize insulin receptor (I2033 Sigma Aldrich) or phosphorylated form of IR (MABS65, Sigma-Aldrich). Sample loading was evaluated probing PVDF membrane with anti-actin antibodies (ABT1485 Sigma Aldrich).

Series [2] concerns the target T1, human recombinant AR (Homo sapiens, UniProt P15121).
T1 construct: made in house; host or cells: E. coli BL21(DE3)pLysS
The series is described as follows: Inhibition of human recombinant AR, L-idose as substrate (NADPH oxidation at 340 nm). The format is biochemical. As to conditions: human recombinant AR, 2 mM L-idose as substrate; mean ± S.E.M. How it is done:
The human recombinant AR was expressed in BL21(DE3)pLysS E. coli cells and purified to electrophoretic homogeneity as previously described. The purified enzyme (specific activity 5.0 U/mg) was stored at −80 °C in 10 mM sodium phosphate buffer pH 7.0 containing 2 mM dithiothreitol and 30% (w/v) glycerol. AR activity was determined at 37 °C as previously described evaluating the decrease in absorbance at 340 nm linked to NADPH oxidation. […] One unit of enzyme activity is the amount that catalyzes the conversion of 1 μmol of substrate/min in the above assay conditions.
All compounds tested as aldose reductase inhibitors were dissolved in DMSO and added to the assay mixture containing 8 mU of purified AR. The reaction was started by addition of the substrate. The DMSO concentration in all the assays was kept constant at 0.5% (v/v) in order to avoid effects on AR activity.
The IC50 values were determined by nonlinear regression analysis using Prism GraphPad 6.0 fitting experimental data to the following equation:(1) vi/v0= Max−Min/1+( I/IC50)^slope +Min
In the equation, vi/v0, represents the ratio between the activity measured in the presence of the inhibitor and the activity measured in the absence of inhibitor; Max and Min represent the expected maximal and minimal value of the activity and were fixed at 1 and zero, respectively. Slope, which describes the steepness of curve in the transition region, was fixed at −1. For each compound, at least five different concentrations of inhibitor in the triplicate assay were analyzed.

The subject of series [3] is insulin receptor (IRβ) phosphorylation in HepG2 cells. In words: Insulin receptor phosphorylation in HepG2 cells (western blot). It is filed as cell-based, human. The protocol: as §3, §4
The next series concerns the target T2, human recombinant PTP1B (Homo sapiens, UniProt P18031).
T2 sequence (P18031 1-435): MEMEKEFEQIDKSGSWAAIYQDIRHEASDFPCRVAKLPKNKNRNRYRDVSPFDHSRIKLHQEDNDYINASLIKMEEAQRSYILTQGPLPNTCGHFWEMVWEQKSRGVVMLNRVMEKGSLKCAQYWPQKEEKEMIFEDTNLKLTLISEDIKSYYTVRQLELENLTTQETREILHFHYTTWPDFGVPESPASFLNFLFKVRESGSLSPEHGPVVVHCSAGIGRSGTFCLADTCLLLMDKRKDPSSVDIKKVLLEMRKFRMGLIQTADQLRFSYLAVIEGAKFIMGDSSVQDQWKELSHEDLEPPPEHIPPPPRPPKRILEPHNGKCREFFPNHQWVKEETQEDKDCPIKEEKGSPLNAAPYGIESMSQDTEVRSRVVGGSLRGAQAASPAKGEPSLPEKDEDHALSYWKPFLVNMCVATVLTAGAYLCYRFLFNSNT
The series is described as follows: Reversibility assay (dilution test) with PTP1B. The format is biochemical. As to conditions: saturating inhibitor, 60 min 37 °C, diluted 400 folds. The protocol:
An aliquot of the enzyme was incubated for 60 min at 37 °C in the presence of saturating amount of PTP1B inhibitor. After this time, an aliquot of the enzyme was withdrawn and diluted 400 folds in the assay buffer containing 2.5 mM of pNPP. After 15 min, the reaction was stopped by adding 1 mL of KOH 0.2 M. The amount of pNP released was calculating measuring the absorbance at 400 nm of solutions using a spectrophotometer. Data obtained were normalized respect to control tests, which was carried out diluting the enzyme with DMSO, the solvent used to dissolve all compounds. Data reported in the figure represent the mean value +/− S.E.M. (n = 3).

For series [4], the target named is T1, human recombinant AR. The series is described as follows: Kinetic analysis of AR inhibition (Lineweaver-Burk and secondary plots). It is filed as biochemical. The protocol:
The kinetic analysis of compounds 4a, 4e and 4f was performed by measuring reaction rates with different L-idose concentrations s (S) in the absence and in the presence of different inhibitors concentrations. Data were analyzed by Linewever-Burk plots.

In another series the test system is C2C12 cells. In words: Cell viability, MTT assay, C2C12. It is filed as cell-based, murine. As to conditions: C2C12, 48 h. The protocol: as §1, §2

`O=C(O)CCN1C(=O)/C(=C/c2ccc(OCCc3ccccc3)cc2)SC1=S` [4f, 3-[(5Z)-4-Oxo-{5-[4-(2-phenylethoxy)phenyl]methylidene}-2-thioxothiazolidin-3-yl]propanoic acid]: the “Cytotoxicity (cell viability, MTT)” value in the series with HepG2 cells is “well tolerated”. Besides, the “IRβ phosphorylation levels after insulin versus insulin alone” value in series [1] (C2C12, 25 μM for 90 min, then 10 nM insulin 30 min) was “significantly higher”. In addition, the “Effect on basal IR phosphorylation levels” value in series [1] (C2C12, 25 μM, 90 min, no insulin) is on record as “did not appreciably affect”. Also, the 50% inhibitory concentration (IC50) at human recombinant AR [2] is 5.3 ± 0.4 µM. Moreover, the “Increase of IRβ phosphorylation level after stimulation with insulin” value in series [3] (HepG2, 25 μM for 90 min, then 10 nM insulin 30 min, control cells 39%) turned out to be 260%. Also, in series [3] (HepG2, 25 μM, 90 min, no insulin), the “Effect on basal phosphorylation levels of IRβ” value was “marked reduction”. The “Reversibility of PTP1B inhibition” value at human recombinant PTP1B is “reversible inhibitors”. Also, the “AR Ki relative to K′i” value on human recombinant AR [4] (Ki higher than K′i) was “at least ten-fold higher”. Besides, at human recombinant AR [4] (L-idose as substrate), the “AR K′i (apparent dissociation constant, EIS complex)” value is 2.9 ± 0.12 µM and the “Mechanism of AR inhibition” value is recorded as “uncompetitive inhibitors”. On human recombinant AR [4] (L-idose as substrate, read-out: AR Ki (apparent dissociation constant)), the Ki is above 30 µM. For the same compound, in the series with C2C12 cells (highest concentration tested), the “Concentration at which a reduction of cell viability was observed” value came out at 50 µM. The “Cytotoxicity (cell viability, MTT)” value in the series on C2C12 cells (up to 50 μM) was “well tolerated”.
